Data set [1] relates to HCMV. The experiment in a line: HCMV plaque (focus) reduction assay in HFF cells. In kind it is cell-based. The following applies: read-out: 50% Inhibitory Concentration IC50, Antiviral Activity, HCMV (plaque assay in HFF cells). As to the method: (§1) KB cells (available from the American Type Culture Collection (ATCC) 12301 Parklawn Drive, […], Md. 20852 (ATCC CCL 17)), an established human cell line derived from an epidermal oral carcinoma, were grown in minimal essential medium (MEM) (Sigma) with Hanks salts (MEM(H)) supplemented with 5% fetal calf serum. Human foreskin fibroblasts (HFF cells) (provided by the University of Michigan Hospital) and African green monkey kidney cells (BSC-1) (ATTC CCL 26) cells were grown in MEM with Earl salts (MEM(E)) supplemented with 10% fetal bovine serum. Cells were passaged according to conventional procedures and as described in Shipman, C., Jr. et al. (1976) Antimicrob. Agents Chemother. Vol. 9:120 and incorporated herein by reference. Briefly, cells were passaged at 1:2 to 1:10 dilutions according to conventional procedures by using 0.05% trypsin plus 0.02% EDTA in a HEPES buffered salt solution. HFF cells were passaged onlv at 1:2 dilutions.
(§2) A plaque purified isolate, Po, of the Towne strain of HCMV was used in all experiments and was a gift of Dr. Mark Stinski, University of Iowa. The KOS strain of HSV-1 was used and was provided by Dr. Sandra K. Weller, University of Connecticut. Stock preparations of HCMV and HSV-1 were prepared and titered as known to those of skill and the art and described in Turk, S. R. et al. (1987) Antimicrob. Agents Chemother. Vol. 31:544-550 and Shipman, C., Jr., et al. (1990) J. Virol. Methods Vol. 28:101-106, each incorporated herein by reference.
Stock HCMV was prepared by infecting HFF cells at a multiplicity of infection (m.o.i.) of less that 0.01 plaque-forming units (p.f.u.) per cell. Cell growth medium was changed every four days until cytopathology was evident in all cells (approximately 21 days). Supernatant fluids were retained as the virus stock. Four days later, the remaining cells were disrupted by three cycles of freeze-thawing and the cell plus medium held as an additional source of virus. Storage was in liquid nitrogen.
HCMV was titered in 24-well cluster dishes which were plated to contain 5×10^4 HFF cells/well, grown as described above. When the cells were 70 to 80% confluent, 0.2 ml of the virus suspension was added per well and adsorbed as described above. At least three ten-fold dilutions of each preparation were used. Following virus adsorption, the cell sheets were overlayed with 0.5% methocel (4000 CPS) in maintenance medium [MEM(E) with 1.1 g/liter NaHCO3, 100 units/ml penicillin G, 100 μg/ml streptomycin, and 5% fetal bovine serum]. The cultures were incubated in a humidified atmosphere of 4% CO2 -96% air. Viral plaques were visible 5 to 7 days after infection using at least 10-fold magnification. Cells were fixed and stained by a 10-minute exposure to a 0.1% solution of crystal violet in 20% methanol 7 to 12 days after infection. Microscopic foci were enumerated at 20-fold magnification using a Nikon Profile Projector.
(§3) HCMV plaque reduction experiments were performed with monolayer cultures of HFF cells by a procedure similar to that referenced above for titration of the viruses and described in Devivar, R. V. et al. (1994) J. Med. Chem. Vol. 37:2942-2949. Activity of compounds against HSV-1 was evaluated using an ELISA assay.
The effect of compounds of the replication of HCMV was measured using a plaque (focus) reduction assay. For the former, HFF cells in 24-well culture dishes were infected with approximately 50 p.f.u. of HCMV per well using the procedures detailed above. Compounds dissolved in growth medium were added in four to six selected concentrations to duplicate wells following virus adsorption. Following incubation at 37 °C for 7 to 10 days, cell sheets were fixed, stained and microscopic plaques were enumerated as described above. Drug effects were calculated as a percentage of reduction in number of plaques in the presence of each drug concentration compared to the number observed in the absence of drug. […]

A further data set deals with HSV-1. Put plainly: HSV-1 ELISA assay. The data set is classed as cell-based, herpes simplex virus type 1, KOS strain. The settings on record: Human alphaherpesvirus 1; read-out: 50% Inhibitory Concentration IC50, Antiviral Activity, HSV-1 (ELISA assay). As to the method: as §1, §2
Briefly, high titer HSV-1 stocks were prepared as follows. Nearly confluent monolayer cultures of KB cells were grown in 32 oz. glass bottles containing MEM(E) buffered with 25 mM HEPES and supplemented with 5% fetal bovine serum and 0.127 giliter L-arginine (VGM, virus growth medium). The cultures were infected at a low input multiplicity to reduce the formation of defective virus. After cell cytopathology reached "three to four plus", the cells were harvested by vigorous shaking, and concentrated by centrifugation (800×g for 5 min.). The resulting virus pools were stored at -760C until retrieved for use in experiments.
HSV-1 was titered using monolayer cultures of BSC-1 cells. Cells were planted at 3×10^5 cells/well using 6-well cluster dishes. MEM(E) supplemented with 10% fetal bovine serum was employed as medium. After 22-24 h, cells were 90% confluent and were inoculated in triplicate using at least three ten-fold dilutions with 0.2 ml of the virus suspension to be assayed and incubated in a humidified 4% CO2 -[…] atmosphere for one hour to permit viral adsorption. Following virus adsorption, the cell sheet was overlayed with 5 ml of MEM(E) with 5% serum plus 0.5% methocel (4000 CPS) and incubated an additional two to three days. Cells were fixed and stained with 0.1% crystal violet in 20% methanol and macroscopic plaques enumerated.
as §3
ELISA techniques according to standard procedures were also used to determine activity against HSV-1. Drug effects were calculated as a percentage of the reduction in virus titers in the presence of each drug concentration compared to the titer obtained in the absence of drug. Ganciclovir was used as a positive control in all experiments.
A general note: An ELISA detects its analyte on a solid surface through an enzyme-linked reagent.

Another data set is described as follows: in vitro. In kind it is cell-based, human. The settings on record: human, hff cells. On the procedure: as §1
(§4) Two different methods were used to evaluate cytotoxicity of the compounds. First, cytotoxicity produced in stationary HFF cells was determined by microscopical examination of cells not affected by the virus used in the plaque assay. Second the effect of compounds on KB cells during two population doubling times was determined by crystal violet staining and spectrophotometric quantitation of dye eluted from stained cells. This method has been utilized for the analysis of ganciclovir and zidovudine (See Prichard, M. N. et al. Antiviral Res. (1991) Vol. 35:1060-1065).

Data set [2] can be described thus: Growth cytotoxicity in KB cells (crystal violet staining). The data set is classed as cell-based. The settings on record: human, two population doubling times, read-out: 50% Inhibitory Concentration IC50, Cytotoxicity, Growth (KB cells). On the procedure:
as §1, §4

Data set [3] can be described thus: Growth cytotoxicity in CEM cells. The settings on record: human, read-out: 50% Inhibitory Concentration IC50, Cytotoxicity, Growth (CEM cells). The data set is classed as cell-based. On the procedure:
(§5) CEM cells and strain IIIB of HIV-1 were obtained through courtesy of Dr. Louis S. Kurcera, Boman Gray School of Medicine, Wake Forest University. CEM cells were grown in suspension culture and passaged through conventional procedures.

Data set [4] deals with HCMV. The following applies: background; cited from earlier work.
The conditions of data set [5]: background; cited from earlier work.
The subject of another data set is HIV-1. Put plainly: HIV-1 replication, reverse transcriptase (RT) assay in CEM cells. The data set is classed as cell-based, HIV-1 strain IIIB. As to the method:
as §5
The activity of compounds against HIV-1 replication was determine by using reverse transcriptase (RT) as a marker for HIV-1. Strain IIIB of HIV-1 was grown in CEM cells maintained in suspension culture as detailed previously (see Kucera et al. AIDS Res. Human Retroviruses, 1993, Vol. 9, pp. 307-314). The assay measured the presence of HIV in supernatants of infected CEM cells by determining the amount of RT activity. Cells were grown, infected with HIV-1, and incubated in the presence of seven concentrations (one-half log10 dilutions) of the test compounds beginning at 1 or 100 μM concentration, depending on the compound to be assayed. Procedures and the RT assay were performed as detailed previously (see White et al., Antiviral Res. 1991, Vol. 16, pp. 257-266).

Setting [6] is: Human betaherpesvirus 5, HFF cells, 7 to 10 days.

Consider five compounds from patent US6214801A, “Imidazo[1,2-a]pyridine C-nucleosides as antiviral agents” (The Regents of the University of Michigan, priority 1999, dated 2001).

Entries after “also recorded” stand apart in the source; their conditions may differ. Like-named read-outs stand apart in the source and are kept apart here.

Take `Clc1cc2nc(Cl)c(C3C=CCO3)n2cc1Cl` (racemic) [Compound 26, 2,6,7-Trichloro-3-(2',3'-dideoxy-2',3'-didehydro-β-D/ L-erythro-furanosyl)-imidazo[1,2-a]pyridine]: the values for the IC50 in the data set with HCMV [1] (setting [6]) and with HSV-1 were 32 µM and > 100 µM, respectively. Besides, the figures for the CC50 (in “in vitro”; in data set [2]; in data set [3]) were 222 µM, > 100 µM and > 100 µM, respectively.

Regarding `OC[C@H]1O[C@@H](n2c(Cl)nc3cc(Cl)c(Cl)cc32)[C@H](O)[C@@H]1O` [TCRB, 2,5,6-trichloro-1-(2'-β-D-ribofuranosyl)benzimidazole], the IC50 with HCMV [1] (setting [6]) came out at 9.5 µM. The compound also had a CC50 in “in vitro” of 15 µM. Besides, the “antiviral activity of known compounds (in words)” value with HCMV [4] was “useful against HCMV infections; also recorded: very potent activity against HCMV”. Besides, the “cytotoxicity of known compounds (in words)” value in data set [5] was “low cellular toxicity at concentrations inhibiting viral growth”.

For the compound `OC[C@H]1O[C@@H](n2cnc3cc(Cl)c(Cl)cc32)[C@H](O)[C@@H]1O` [DRB, 5,6-dichloro-1-(β-D-ribofuranosyl) benzimidazole], the “antiviral activity of known compounds (in words)” value in the data set on HCMV [4] is listed as “only marginal levels of activity”. In addition, the “cytotoxicity of known compounds (in words)” value in data set [5] was “generally unacceptable levels of cytotoxicity”.

For `OC[C@@H]1C=C[C@H](c2c(Cl)nc3cc(Cl)c(Cl)cn23)O1` [Compound 76, 2,6,7-Trichloro-3-(2',3'-dideoxy-2',3'-didehydro-β-D-ribofuranosyl) imidazo[1,2-a] pyridine], the IC50 in the data set with HCMV [1] (Human betaherpesvirus 5, HFF) was 32 µM; with HSV-1, > 100 µM. For the same compound, the CC50 in “in vitro” was 100 µM; in data set [2] it was > 100 µM; in data set [3] it was > 100 µM. The “50% Inhibitory Concentration IC50, Antiviral Activity, HIV-1 (RT Assay)” value in the data set on HIV-1 (CEM cells, strain IIIB) is listed as 14/25.

“5-(5'-O-[(tert-Butyl)dimethylsilyl]-2',3'-O-isopropylidene-β-D-ribofuranosyl)-imidazo[1,2-a]pyridine [Compound 44]”: the “HIV-1 antiviral activity (in words)” value with HIV-1 (Table 6) is given as “HIV-1 antiviral activity at non-cytotoxic concentrations”.
